Experimental data taken from patent US20060025589A1, “2-Thiohydantoine derivative compounds and use thereof for the treatment of diabetes” (priority 2002, published 2006).

These molecules were tested on male C57BL/KsJ-db/db mice (assay: in vivo reduction of serum glucose and triglyceride levels in diabetic db/db mice). Settings: gavage, suspended in 3% gum arabic, twice daily for 10 days plus morning of day 11, doses below 200 mg/kg, generally 10 mg/kg, blood taken 4 h after last administration.
Description: The compounds of formula (I) according to the invention were subjected to pharmacological tests in order to evaluate their potential to reduce the blood glycemia level.
The in vivo studies were carried out on male C57BL/KsJ-db/db mice originating from CERJ (Route des Chênes Secs—BP 5—53940 Le Genest St Isle—France).
The animals are accommodated in cages fitted with a filter lid and have free access to an irradiated standard food and to filtered drinking water. All the equipment used (cages, feeding bottles, pipettes and shavings) is sterilized by autoclaving, irradiation or immersion in a disinfectant. The temperature of the room is maintained at 23±2° C. The light-dark cycle is 12 h.
During the acclimatization period, each animal is tagged with an electronic chip, which is implanted under anesthesia effected by the inhalation of a CO2/O2 mixture.
Groups of 8 to 10 mice are formed and the treatments start when the animals are 9 to 11 weeks old. The products are suspended in gum arabic at a concentration of 3% and administered to the animals by means of a gavage cannula for 10 days at a rate of two administrations per day, as well as on the morning of day 11. The products are tested at doses below 200 mg/kg and generally of 10 mg/kg. The animals in the control group receive the dosage vehicle only.
A blood sample is taken before treatment and then four hours after the last administration of the product. The animals are anesthetized by the inhalation of a CO2/O2 mixture and the blood is taken from the retro-orbital sinus, collected in a dry tube and kept cold. The serum is separated off by centrifugation at 2800 g (15 minutes, 4° C.) during the hour following sampling. The samples are kept at −20° C. until they are analyzed.
The serum glucose and triglyceride levels are determined on a Konélab 30 analyzer by means of Konélab kits. The animals whose glycemia before treatment was below 3 g/l are systematically excluded from the study.
For each group, the mean glucose and triglyceride levels after treatment are calculated and the results are expressed as the percentage variation of these means relative to the control group after verification of the homogeneity of the means before treatment.

Point of comparison: `CC1C(=O)N(c2ccc(Cc3ccccc3)cc2)C(=S)N1c1ccccc1` (centres unmarked) [Example 185, 5-Methyl-1-phenyl-3-[4-(phenylmethyl)phenyl]-2-thioxoimidazolidin-4-one], “Gly (decrease in the glycemia level; percentage variation of mean serum glucose relative to the control group)” value −57%. Against it:
- C=CCN1CC(=O)N(c2ccc(Cc3ccccc3)cc2)C1=S [Example 190, 3-[4-(Phenylmethyl)phenyl]-1-(2-propenyl)-2-thioxoimidazolidin-4-one] — lower, −58%
- CC1C(=O)N(c2cccc(F)c2)C(=S)N1c1ccc(Oc2ccccc2)cc1 (centres unmarked) [Example 20, 3-(3-Fluorophenyl)-5-methyl-1-(4-phenoxyphenyl)-2-thioxoimidazolidin-4-one] — higher, −47%
- COc1ccc(N2C(=O)CN(c3ccc(Cc4ccccc4)cc3)C2=S)cc1 [Example 195, 3-(4-Methoxyphenyl)-1-[4-(phenylmethyl)phenyl]-2-thioxoimidazolidin-4-one] — higher, −53%
- COc1ccc(N2C(=O)C(C)N(c3ccc(Cc4ccccc4)cc3)C2=S)cc1 (centres unmarked) [Example 200, 3-(4-Methoxyphenyl)-5-methyl-1-[4-(phenylmethyl)phenyl]-2-thioxoimidazolidin-4-one] — lower, −63%
- COc1ccc(N2C(=O)C(C)N(c3ccc(OCc4ccccc4)cc3)C2=S)cc1 (centres unmarked) [Example 139] — higher, −36%
- COc1ccc(N2C(=O)C(C)(C)N(c3ccc(Oc4ccccc4)cc3)C2=S)cc1 [Example 30, 5,5-Dimethyl-3-(4-methoxyphenyl)-1-(4-phenoxyphenyl)-2-thioxoimidazolidin-4-one] — higher, −54%

Point of comparison: `C=CCN1CC(=O)N(c2ccc(Cc3ccccc3)cc2)C1=S` [Example 190, 3-[4-(Phenylmethyl)phenyl]-1-(2-propenyl)-2-thioxoimidazolidin-4-one], “TG (decrease in the triglyceride level; percentage variation of mean serum triglycerides relative to the control group)” value −53%. Against it:
- CC1C(=O)N(c2cccc(F)c2)C(=S)N1c1ccc(Oc2ccccc2)cc1 (centres unmarked) [Example 20, 3-(3-Fluorophenyl)-5-methyl-1-(4-phenoxyphenyl)-2-thioxoimidazolidin-4-one] — higher, −47%
- COc1ccc(N2C(=O)CN(c3ccc(Cc4ccccc4)cc3)C2=S)cc1 [Example 195, 3-(4-Methoxyphenyl)-1-[4-(phenylmethyl)phenyl]-2-thioxoimidazolidin-4-one] — higher, −46%
- COc1ccc(N2C(=O)C(C)N(c3ccc(Cc4ccccc4)cc3)C2=S)cc1 (centres unmarked) [Example 200, 3-(4-Methoxyphenyl)-5-methyl-1-[4-(phenylmethyl)phenyl]-2-thioxoimidazolidin-4-one] — lower, −58%
- COc1ccc(N2C(=O)C(C)N(c3ccc(OCc4ccccc4)cc3)C2=S)cc1 (centres unmarked) [Example 139] — higher, −32%
- COc1ccc(N2C(=O)C(C)(C)N(c3ccc(Oc4ccccc4)cc3)C2=S)cc1 [Example 30, 5,5-Dimethyl-3-(4-methoxyphenyl)-1-(4-phenoxyphenyl)-2-thioxoimidazolidin-4-one] — the same, −53%
- CC1C(=O)N(c2ccc(Cc3ccccc3)cc2)C(=S)N1c1ccccc1 (centres unmarked) [Example 185, 5-Methyl-1-phenyl-3-[4-(phenylmethyl)phenyl]-2-thioxoimidazolidin-4-one] — higher, −39%
